Source: patent US4628104A, “Imidazole ketone derivatives” (G. D. Searle & Co., priority 1985, dated 1986)
≈ marks a conversion by molar mass, not a printed value. Where “and” joins values, the source holds several entries; their conditions need not be identical. Equal entries are not always repeated. Where two headings read alike, the source gives them in different places.

Tests used:
B. fragilis WS-1 = test: Anti-anaerobic activity, microtitre plate broth dilution, strain E; assay type: cell-based; conditions: Bacteroides fragilis, WS1, 48 h, 48 hours at 37° C., read-out: MIC (Minimum Inhibitory Concentration)
[1] = test system: B. fragilis MZ-R ATCC 11295; test: Anti-anaerobic activity, microtitre plate broth dilution, strain D; assay type: cell-based, Bacteroides fragilis; conditions: for MBC / MIC: Bacteroides fragilis, ATCC11295, 48 h; for MBC: 99.9% reduction in viable count, 48 hours, read-out: MBC (Minimum Bactericidal Concentration); for MIC: read-out: MIC (Minimum Inhibitory Concentration)
B. fragilis NCTC 9343 = test: Anti-anaerobic activity, microtitre plate broth dilution, strain B; assay type: cell-based, Bacteroides fragilis; conditions: for MBC / MIC: Bacteroides fragilis, NCTC9343, 48 h; for MBC: read-out: MBC (Minimum Bactericidal Concentration); for MIC: read-out: MIC (Minimum Inhibitory Concentration)
B. fragilis NCTC 10581 = test: Anti-anaerobic activity, microtitre plate broth dilution, strain A; assay type: cell-based, Bacteroides fragilis; conditions: for MBC / MIC: Bacteroides fragilis, NCTC10581, 48 h; for MBC: read-out: MBC (Minimum Bactericidal Concentration); for MIC: 48 hours at 37° C., anaerobic, read-out: MIC (Minimum Inhibitory Concentration)
B. fragilis NCTC 9344 = test: Anti-anaerobic activity, microtitre plate broth dilution, strain C; assay type: cell-based; conditions: Bacteroides fragilis, NCTC9344, 48 h; for MBC: 99.9% reduction in viable count, 48 hours, read-out: MBC (Minimum Bactericidal Concentration); for MIC: 48 hours at 37° C., anaerobic, read-out: MIC (Minimum Inhibitory Concentration)
[2] = test system: Propionibacterium acnes NCTC 737; test: Anti-anaerobic activity, additional strains, strain N; assay type: cell-based; conditions: Cutibacterium acnes, NCTC737; strain N; read-out: MIC
[3] = test system: Campylobacter fetus ATCC 29428; test: Anti-anaerobic activity, additional strains, strain I; conditions: ATCC29428
[4] = test system: Peptostreptococcus anaerobicus ATCC 27337; test: Anti-anaerobic activity, additional strains, strain M; conditions: ATCC27337
[5] = test system: Peptococcus magnus ATCC 29328; test: Anti-anaerobic activity, additional strains, strain K; assay type: cell-based; conditions: Finegoldia magna, ATCC29328; strain K; read-out: MIC
[6] = test system: Propionibacterium acnes NCTC 7337; test: Anti-anaerobic activity, additional strains, strain O; assay type: cell-based; conditions: Cutibacterium acnes, NCTC7337; strain O; read-out: MIC
[7] = test system: Fusobacterium necrophorum ATCC 11295; test: Anti-anaerobic activity, additional strains, strain J; assay type: cell-based; conditions: ATCC11295, strain J, read-out: MIC
[8] = test system: Clostridium perfringens NCTC 523; test: microbe, parasite or virus in culture; assay type: cell-based; conditions: NCTC523
[9] = test system: Clostridium perfringens NCTC 8237; test: microbe, parasite or virus in culture; assay type: cell-based; conditions: NCTC8237, strain G
[10] = strain D, 48 hours at 37° C., anaerobic
[11] = 99.9% reduction in viable count, 48 hours
[12] = strain A, 99.9% reduction in viable count, 48 hours

Row | SMILES | MIC (B. fragilis WS-1) | MBC ([1]; strain D) | MIC [1, 10] | MBC (B. fragilis NCTC 9343; [11]) | MIC (B. fragilis NCTC 9343; 48 hours at 37° C., anaerobic) | MBC (B. fragilis NCTC 10581; [12]) | MIC (B. fragilis NCTC 10581; strain A) | MBC (B. fragilis NCTC 9344) | MIC (B. fragilis NCTC 9344) | MIC [2] | MIC [6] | MIC [7] | MIC [8] | further results
1 | O=C(c1ccc(Cl)cc1Cl)C(Cn1cncn1)c1ccccc1 (centres unmarked) [Example 23, 1-(2,4-Dichlorophenyl)-2-phenyl-3-(1,2,4-triazol-1-yl) propan-1-one] | 0.8 µg/mL (≈ 2.31 µM) | 0.8 µg/mL (≈ 2.31 µM) | 0.8 µg/mL (≈ 2.31 µM) | 0.8 µg/mL (≈ 2.31 µM) | 0.8 µg/mL (≈ 2.31 µM) | 0.8 µg/mL (≈ 2.31 µM) | 0.8 µg/mL (≈ 2.31 µM) | 0.8 µg/mL (≈ 2.31 µM) | 0.8 µg/mL (≈ 2.31 µM) | – | – | – | – | –
2 | CSc1nccn1CC(C(=O)c1ccc(Cl)cc1Cl)c1ccccc1 (centres unmarked) [Example 24, 1-(2,4-Dichlorophenyl)-2-phenyl-3-(2-thiomethylimidazol-1-yl)propan-1-one] | 50 µg/mL (≈ 128 µM) | 100 µg/mL (≈ 256 µM) | 25 µg/mL (≈ 63.9 µM) | 100 µg/mL (≈ 256 µM) | 25 µg/mL (≈ 63.9 µM) | 100 µg/mL (≈ 256 µM) | 25 µg/mL (≈ 63.9 µM) | 100 µg/mL (≈ 256 µM) | 25 µg/mL (≈ 63.9 µM) | – | – | – | – | –
3 | O=C(c1ccccn1)C(Cn1ccnc1)c1ccccc1 (centres unmarked) [Example 21, 3-(Imidazol-1-yl)-2-phenyl-1-(2-pyridyl)propan-1-one] | 25 µg/mL (≈ 90.1 µM) | 6.2 µg/mL (≈ 22.4 µM) | 6.2 µg/mL (≈ 22.4 µM) | 25 µg/mL (≈ 90.1 µM) | 25 µg/mL (≈ 90.1 µM) | 12.5 µg/mL (≈ 45.1 µM) | 12.5 µg/mL (≈ 45.1 µM) | 12.5 µg/mL (≈ 45.1 µM) | 6.2 µg/mL (≈ 22.4 µM) | – | – | – | – | –
4 | Cc1ncc([N+](=O)[O-])n1CCO [Metronidazole, reference compound] | – | – | – | 0.8 µg/mL (≈ 4.67 µM) | 0.8 µg/mL (≈ 4.67 µM) | 0.8 µg/mL (≈ 4.67 µM) | – | – | – | 10 µg/mL (≈ 58.4 µM) | 10 µg/mL (≈ 58.4 µM) | 10 µg/mL (≈ 58.4 µM) | 0.08 µg/mL (≈ 0.467 µM) | MIC [1]: 10 µg/mL (≈ 58.4 µM); MIC (Minimum Inhibitory Concentration) [1, 10]: 10.9 mg/L and 10.0 mg/L and 10 mg/L; MIC [3]: 10 µg/mL (≈ 58.4 µM); MIC [4]: 0.3 µg/mL (≈ 1.75 µM); MIC [5]: 0.6 µg/mL (≈ 3.51 µM); MBC (Minimum Bactericidal Concentration) (B. fragilis NCTC 9343; [11]): 1.2 mg/L and 0.6 mg/L; MIC (Minimum Inhibitory Concentration) (B. fragilis NCTC 9343; 48 hours at 37° C., anaerobic): 0.6 mg/L and 1.2 mg/L; MBC (B. fragilis NCTC 10581): 1.2 µg/mL (≈ 7.01 µM); MBC (Minimum Bactericidal Concentration) (B. fragilis NCTC 10581; [12]): 1.2 mg/L and 0.6 mg/L
5 | CC(C)(C)C(Cn1ccnc1)C(=O)c1ccc(Cl)cc1Cl (centres unmarked) [Example 22, 1-(2,4-Dichlorophenyl)-3,3-dimethyl-2-(imidazol-1-ylmethyl)butan-1-one] | 100 µg/mL (≈ 307 µM) | – | 50 µg/mL (≈ 154 µM) | – | 50 µg/mL (≈ 154 µM) | – | 50 µg/mL (≈ 154 µM) | – | 50 µg/mL (≈ 154 µM) | – | – | – | – | –
6 | Cc1ccc(C(Cn2ccnc2)C(=O)c2ccc(Cl)cc2Cl)cc1 (centres unmarked) [Example 15, 1-(2,4-Dichlorophenyl)-3-(imidazol-1-yl)-2-(4-methylphenyl) propan-1-one] | 0.8 µg/mL (≈ 2.23 µM) | 0.8 µg/mL (≈ 2.23 µM) | 0.8 µg/mL (≈ 2.23 µM) | 0.8 µg/mL (≈ 2.23 µM) | 0.8 µg/mL (≈ 2.23 µM) | 0.8 µg/mL (≈ 2.23 µM) | 0.8 µg/mL (≈ 2.23 µM) | 0.8 µg/mL (≈ 2.23 µM) | 0.8 µg/mL (≈ 2.23 µM) | 0.6 µg/mL (≈ 1.67 µM) | 0.1 µg/mL (≈ 0.278 µM) | 0.3 µg/mL (≈ 0.835 µM) | 0.3 µg/mL (≈ 0.835 µM) | MIC [9]: 0.6 µg/mL (≈ 1.67 µM)
